Measurements from publication PMC11950852, “Diversity Scale of Library Matters: Impact of mRNA Library Diversity Scales on the Discovery of Macrocyclic Peptides Targeting a Protein by the RaPID System” (ACS Central Science, 2025).
pKd: −log10 of the molar value. Where a SMILES comes first, the peptide text is derived from it. Bridges are numbered along the chain shown (N, C = ends).

Target: Fc-fused MET (His-/hFc-tagged human MET ectodomain) (Homo sapiens, UniProt P08581)
Assay: SPR binding kinetics of selected macrocyclic peptides to Fc-fused MET
Conditions: for pKd: KD, 1:1 binding model; for pKd / ka / kd / kd (quoted in text): SPR conditions as E1; for kon: pH 7.4, read-out: ka

Row | SMILES | pKd | ka | kd | kd (quoted in text) | kon | kd (quoted in text) (listed as 8–2) | fold slower kd than other species of the E8 library (other species kd = ∼50 × 10^–3 s^–1)
1 | CC(C)C[C@@H]1NC(=O)[C@H](Cc2ccc(O)cc2)NC(=O)[C@H](Cc2c[nH]c3ccccc23)NC(=O)[C@H](CO)NC(=O)[C@H](Cc2ccc(O)cc2)NC(=O)CSC[C@@H](C(=O)NCC(N)=O)NC(=O)[C@H](Cc2ccccc2)NC(=O)[C@H](CCC(=O)O)NC(=O)[C@H](Cc2ccccc2)NC(=O)[C@H](CCCCN)NC(=O)[C@H](CCCCN)NC(=O)[C@H](Cc2c[nH]c3ccccc23)NC(=O)[C@H](CCC(N)=O)NC(=O)[C@H](C)NC(=O)[C@H](CCC(N)=O)NC(=O)[C@H](Cc2c[nH]c3ccccc23)NC(=O)[C@H](CC(N)=O)NC1=O [6-1] ({CH2CO}-YSWYLNWQAQWKKFEFCG-NH2; thioether N-17) | 6.67 | 2.44 × 10^5 M^–1 s^–1 | 0.0518 s⁻¹ | 51.8 × 10^–3 s^–1 | 244000 M⁻¹ s⁻¹ | – | –
2 | CC[C@H](C)[C@@H]1NC(=O)[C@H](C(C)C)NC(=O)[C@H](CO)NC(=O)[C@H](CC(=O)O)NC(=O)[C@H](C(C)C)NC(=O)[C@H](CC(=O)O)NC(=O)[C@H](CCCCN)NC(=O)CNC(=O)[C@H](CO)NC(=O)[C@H](Cc2c[nH]c3ccccc23)NC(=O)[C@H](CO)NC(=O)[C@H](Cc2ccc(O)cc2)NC(=O)[C@H](Cc2ccc(O)cc2)NC(=O)CSC[C@@H](C(=O)NCC(N)=O)NC(=O)[C@H](CC(N)=O)NC(=O)[C@H](CC(N)=O)NC(=O)[C@H](Cc2c[nH]c3ccccc23)NC1=O [14-2] ({CH2CO}-YYSWSGKDVDSVIWNNCG-NH2; thioether N-17) | – | – | 0.00182 s⁻¹ | – | 464000 M⁻¹ s⁻¹ | – | –
3 | CC[C@H](C)[C@@H]1NC(=O)[C@H](Cc2ccc(O)cc2)NC(=O)CSC[C@@H](C(=O)NCC(N)=O)NC(=O)[C@H](CS)NC(=O)[C@H](CC(N)=O)NC(=O)[C@H](CS)NC(=O)[C@H](CC(N)=O)NC(=O)[C@H](Cc2c[nH]c3ccccc23)NC(=O)[C@H](CC(C)C)NC(=O)[C@H](CCCCN)NC(=O)[C@H](CO)NC(=O)[C@H](CC(N)=O)NC(=O)[C@H](Cc2ccccc2)NC(=O)[C@H](CCCNC(=N)N)NC(=O)[C@H](CC(N)=O)NC(=O)[C@H](Cc2c[nH]c3ccccc23)NC(=O)[C@H](CCC(=O)O)NC1=O [10-4] ({CH2CO}-YIEWNRFNSKLWNCNCCG-NH2; thioether N-17) | – | – | 0.00809 s⁻¹ | – | 26300 M⁻¹ s⁻¹ | – | –
4 | CC(C)C[C@@H]1NC(=O)[C@H](Cc2ccc(O)cc2)NC(=O)CSC[C@@H](C(=O)NCC(N)=O)NC(=O)[C@H](CC(=O)O)NC(=O)[C@H](C(C)C)NC(=O)[C@H](Cc2ccc(O)cc2)NC(=O)[C@H](C(C)C)NC(=O)[C@H](Cc2c[nH]c3ccccc23)NC(=O)[C@H](CC(=O)O)NC(=O)[C@H](CCCCN)NC(=O)[C@H](CC(N)=O)NC(=O)[C@H](CC(=O)O)NC(=O)[C@H](Cc2ccc(O)cc2)NC(=O)[C@H](CCCCN)NC(=O)[C@H](Cc2c[nH]cn2)NC(=O)[C@H](Cc2c[nH]c3ccccc23)NC(=O)[C@H](CC(C)C)NC1=O [10-5] ({CH2CO}-YLLWHKYDNKDWVYVDCG-NH2; thioether N-17) | – | – | 0.00694 s⁻¹ | – | 356000 M⁻¹ s⁻¹ | – | –
5 | C[C@@H]1NC(=O)[C@H](C)NC(=O)[C@H](CC(=O)O)NC(=O)[C@H](Cc2ccc(O)cc2)NC(=O)[C@H](CCC(=O)O)NC(=O)[C@H](CCC(=O)O)NC(=O)[C@H](Cc2c[nH]c3ccccc23)NC(=O)[C@H](CCCNC(=N)N)NC(=O)CNC(=O)[C@H](CC(=O)O)NC(=O)[C@H](Cc2ccccc2)NC(=O)[C@H]([C@@H](C)O)NC(=O)[C@H](Cc2ccc(O)cc2)NC(=O)[C@H](Cc2ccc(O)cc2)NC(=O)[C@H](Cc2c[nH]c3ccccc23)NC(=O)[C@H](Cc2ccc(O)cc2)NC(=O)CSC[C@@H](C(=O)NCC(N)=O)NC1=O [8-3] ({CH2CO}-YWYYTFDGRWEEYDAACG-NH2; thioether N-17) | – | 2.33 × 10^5 M^–1 s^–1 | 0.0464 s⁻¹ | 46.4 × 10^–3 s^–1 | 233000 M⁻¹ s⁻¹ | – | –
6 | CC(C)[C@@H]1NC(=O)[C@H](CCCCN)NC(=O)[C@H](CC(=O)O)NC(=O)CNC(=O)[C@H](CC(=O)O)NC(=O)[C@H](CCCNC(=N)N)NC(=O)CNC(=O)[C@H](CC(N)=O)NC(=O)[C@H](Cc2c[nH]c3ccccc23)NC(=O)[C@H](Cc2c[nH]cn2)NC(=O)[C@H](Cc2ccc(O)cc2)NC(=O)[C@H](Cc2ccc(O)cc2)NC(=O)CSC[C@@H](C(=O)NCC(N)=O)NC(=O)[C@H](C(C)C)NC(=O)[C@H](C(C)C)NC(=O)[C@H](Cc2c[nH]c3ccccc23)NC(=O)[C@H](CCC(=O)O)NC1=O [8-2] ({CH2CO}-YYHWNGRDGDKVEWVVCG-NH2; thioether N-17) | 7.67 | – | 0.0103 s⁻¹ | ~10 × 10^–3 s^–1 | 475000 M⁻¹ s⁻¹ | 10.3 × 10^–3 s^–1 | 5 fold
7 | CC(C)C[C@@H]1NC(=O)[C@H](CCCCN)NC(=O)CNC(=O)[C@H](Cc2ccccc2)NC(=O)CNC(=O)[C@H](Cc2ccc(O)cc2)NC(=O)[C@H](C(C)C)NC(=O)[C@H](Cc2c[nH]c3ccccc23)NC(=O)[C@H](Cc2ccc(O)cc2)NC(=O)CSC[C@@H](C(=O)NCC(N)=O)NC(=O)[C@H](Cc2ccccc2)NC(=O)[C@H](C)NC(=O)[C@H](CCCNC(=N)N)NC(=O)[C@H](Cc2c[nH]c3ccccc23)NC(=O)[C@H](CC(=O)O)NC(=O)[C@H](CC(N)=O)NC(=O)[C@H](CC(N)=O)NC1=O [14-1] ({CH2CO}-YWVYGFGKLNNDWRAFCG-NH2; thioether N-17) | – | – | 0.000739 s⁻¹ | – | 257000 M⁻¹ s⁻¹ | – | –
8 | C[C@@H]1NC(=O)CNC(=O)[C@H](Cc2ccc(O)cc2)NC(=O)[C@H](CCC(=O)O)NC(=O)[C@H](CCCCN)NC(=O)[C@H](Cc2c[nH]c3ccccc23)NC(=O)[C@H](CCCNC(=N)N)NC(=O)CNC(=O)[C@H](CC(=O)O)NC(=O)[C@H](Cc2ccccc2)NC(=O)[C@H]([C@@H](C)O)NC(=O)[C@H](Cc2ccc(O)cc2)NC(=O)[C@H](Cc2ccc(O)cc2)NC(=O)[C@H](Cc2c[nH]c3ccccc23)NC(=O)[C@H](Cc2ccc(O)cc2)NC(=O)CSC[C@@H](C(=O)NCC(N)=O)NC(=O)[C@H](C)NC1=O [8-1] ({CH2CO}-YWYYTFDGRWKEYGAACG-NH2; thioether N-17) | 7.51 | 13.8 × 10^5 M^–1 s^–1 | 0.0427 s⁻¹ | 42.7 × 10^–3 s^–1 | 1.38e+06 M⁻¹ s⁻¹ | – | –
9 | CC[C@H](C)[C@@H]1NC(=O)[C@H](CCCCN)NC(=O)[C@@H](NC(=O)[C@H](CCC(=O)O)NC(=O)[C@@H](NC(=O)[C@H](Cc2c[nH]c3ccccc23)NC(=O)[C@H](CC(C)C)NC(=O)[C@@H]2CSCC(=O)N[C@@H](Cc3ccc(O)cc3)C(=O)N[C@@H](CC(N)=O)C(=O)N2)C(C)C)CSSC[C@@H](C(=O)NCC(N)=O)NC(=O)[C@H](CCCNC(=N)N)NC(=O)CNC(=O)[C@H](CC(N)=O)NC(=O)[C@@H]2CCCN2C(=O)[C@H](CC(C)C)NC(=O)[C@H](C(C)C)NC1=O [12-4] ({CH2CO}-YNCLWVECKIVLPNGRCG-NH2; disulfide 8-17; thioether N-3) | – | – | 0.00721 s⁻¹ | 7.21 × 10^–3 s^–1 | 456000 M⁻¹ s⁻¹ | – | –
10 | CC[C@H](C)[C@@H]1NC(=O)[C@H](C(C)C)NC(=O)[C@H](Cc2c[nH]c3ccccc23)NC(=O)[C@H](CC(=O)O)NC(=O)[C@H](CO)NC(=O)[C@H](CO)NC(=O)[C@H](CC(=O)O)NC(=O)[C@H](Cc2ccc(O)cc2)NC(=O)[C@H](Cc2ccc(O)cc2)NC(=O)[C@H](CCCCN)NC(=O)[C@H](Cc2c[nH]c3ccccc23)NC(=O)[C@H](CO)NC(=O)[C@H](CC(C)C)NC(=O)[C@H](Cc2ccc(O)cc2)NC(=O)CSC[C@@H](C(=O)NCC(N)=O)NC(=O)[C@H](CO)NC(=O)[C@H](CC(C)C)NC1=O [14-5] ({CH2CO}-YLSWKYYDSSDWVILSCG-NH2; thioether N-17) | – | – | 0.00836 s⁻¹ | – | 129000 M⁻¹ s⁻¹ | – | –
